In patent US20260115280A1, “VACCINES” (ADJUVANCE TECHNOLOGIES, INC., priority 2021, published 2026):

Key:
gE [1] = assay: Anti-gE ELISA, D28 IgG2a subclass endpoint titers (Example 5); format: in vivo, Varicella zoster virus; conditions: CD-1 mice; with 5 mcg gE + 40 mcg TQL-1055; EcML statement at the low TLR4a dose
Source text: (§1) The tolerability and immunogenicity of formulations containing (TQL-1055 free acid HP-β-CD (2-hydroxypropyl beta-cyclodextrin) and TLR4 agonist candidates were studied. CD-1 mice were immunized as shown in the table below. PHAD liposomes were obtained from Avanti. EcML was obtained from EuBiologics. CRX-527 was obtained from InvivoGen. TLR4a-1 is an undisclosed TLR4 compound. AS01 is a combination of 5 mcg QS-21 and 5 mcg MPL used in SHINGRIX.
(§2) Mice were immunized via I.M. on Day 0 and Day 14. Groups were bled at Day-1, Day 13 (post Dose 1), and Day 28 (post Dose 2) for serum analysis for anti-gE specific antibody response and anti-gE specific T cell response. Weight measurements were also obtained on Days 0, 1, 2, 14, 15, 16, and 17.
Similar responses were observed from all 4 TLR4 agonists with CRX-527 having the lowest IgG2a titers. There was a more pronounced dose effect of TLR4a on IgG2a than total IgG. PHAD had the largest difference between low and high dose at 8 times higher. At the low TLR4a dose, EcML had the highest IgG2a.

gE [2] = assay: Anti-gE ELISA, D28 total IgG endpoint titers (Example 5); format: in vivo, Varicella zoster virus; conditions: CD-1 mice; high vs low TLR4 agonist dose with 5 mcg gE + 40 mcg TQL-1055 FA HPβCD
Source text: as §1, §2

CD4+ T cells [3] = assay: D26 CD4 T-cell ICS (Example 5); format: in vivo; conditions: CD-1 mice, high dose PHAD, high dose CRX-527, low dose TLR4a-1 (each with gE + 40 mcg TQL-1055)
Source text: as §1
(§3) Mice were immunized via I.M. on Day 0 and Day 14. […] Weight measurements were also obtained on Days 0, 1, 2, 14, 15, 16, and 17.
The increases were driven largely by higher single cytokine positive T cells for IFN-γ or IL-2.

CD8 T cells = assay: D26 CD8 T-cell ICS (Example 5); format: in vivo; conditions: CD-1 mice; high dose PHAD, both doses CRX-527, high dose TLR4a-1 (each with gE + 40 mcg TQL-1055); AS01
Source text: as §1, §3

CD4+ T cells [4] = assay: D42 CD4 T-cell ICS (Example 5); format: in vivo; conditions: CD-1 mice; AS01; both PHAD doses, high dose TLR4a-1, high dose CRX-527 (each with gE + 40 mcg TQL-1055)
Source text: as §1, §2
Overall, levels of activation much lower than D26 T cell data.

[5] = Weight loss: mean percent initial weight change after immunization (Example 6); format: in vivo, C57BL/6J mice; conditions: mice; TQL 1055 alone with gE
Method: as §1
The study was conducted in two parts with staggered start dates. Part A involved testing TQL1055 in combination with PHAD and EcML. Part B involved testing TQL1055 in combination with CRX-527 and TR4a-1.
Mice were immunized via I.M. on Day 0 and Day 14. Groups were bled at Day-1, Day 13 (post Dose 1), and Day 28 (post Dose 2) for serum analysis for anti-gE specific antibody response. Weight measurements were also obtained on Days 0, 1, 2, 14, 15, 16, and 17.
Post dose 1 mean percent (%) initial weight change for each group is depicted in FIGS. 40-45. Post dose 1 weight loss heatmaps are depicted in FIG. 46. Post dose 2 mean percent (%) initial weight change for each group is depicted in FIGS. 47-51. […] Weight loss appeared to be driven mostly by TLR4 dose.

CD4+ T cells [6] = assay: T-cell intracellular cytokine staining (ICS) assay, CD4+ T-cell (Example 4); format: in vivo; conditions: mice
Method: (§4) The impact of TQL-1055 choline salt (in situ salt) at various dosages, a TLR9 or TLR4 agonist, and VZV gE (expressed by CHO cells), as compared to AS-01B (5 mcg MPL+5 mcg QS-21) was tested. In Experiment #1, mice were immunized with PBS alone, gE (5 mcg)+TLR9 ligand (50 mcg)+TQL-1055 (four groups: 5 mcg, 15 mcg, 25 mcg, 50 mcg), and AS-01B. In Experiment #2, mice were immunized with PBS alone, gE (5 mcg)+TLR4 ligand (5 mcg)+TQL-1055 (four groups: 5 mcg, 15 mcg, 25 mcg, 50 mcg), and AS-01B.
(§5) Mice were immunized at Day 0 and Day 21. Groups were bled at Day 31 […] for serum analysis.
FIG. 22 is a graph depicting the results of a T-cell intracellular cytokine staining (ICS) assay (CD4+ T-cell) showing the percentage of CD4+ T cells expressing one or more cytokines in response to stimulation with VZV gE for Experiment 1. FIG. 23 is a graph depicting the results of T-cell intracellular cytokine staining (ICS) assays (CD4+ T-cell) showing the percentage of CD4+ T cells expressing one or more cytokines in response to stimulation with VZV gE for Experiment 2.

VZV gE = assay: ELISA antibody titers (Example 4); format: in vivo, Varicella zoster virus; conditions: mice
Method: as §4, §5
FIG. 26 is a graph depicting the results of an enzyme-linked immunosorbent assay (ELISA) showing antibody titers for […]. FIG. 27 is a graph depicting the results of an enzyme-linked immunosorbent assay (ELISA) showing antibody titers for Experiment 1.

spleen lymphocytes = assay: FluoroSpot (T-cell) assay, spot forming cells per million spleen lymphocytes (Example 4); format: in vivo; conditions: mice
Method: as §4, §5
FIG. 24 is a graph depicting the results of a FluroSpot (T-cell) assay showing spot forming cells per million spleen lymphocytes for Experiment 1. FIG. 25 is a graph depicting the results of a FluroSpot (T-cell) assay showing spot forming cells per million spleen lymphocytes for Experiment 2.

[7] = gE 5 mcg + TLR9 ligand 50 mcg or TLR4 ligand 5 mcg + TQL-1055 5, 15, 25, 50 mcg
[8] = TQL-1055 5 mcg combined with TLR4 ligand vs AS-01B

SMILES	rank of IgG2a titers among the 4 TLR4 agonists (gE [1])	effect of increasing the TLR4 agonist dose on D28 total IgG endpoint titers (gE [2])	D26 total cytokine+ CD4+ T cells compared to unadjuvanted (CD4+ T cells [3]; AS01)	D26 total polyfunctional CD4+ T cells compared to unadjuvanted control (CD4+ T cells [3])	D26 activated CD8 T cells compared to unadjuvanted control group (CD8 T cells)	D42 total cytokine+ CD4+ T cells compared to unadjuvanted (CD4+ T cells [4])	weight loss compared to unadjuvanted [5]	T-cell response by ICS compared to AS-01B (CD4+ T cells [6]; TQL-1055 5 mcg combined with TLR4 ligand vs AS-01B (5 mcg MPL + 5 mcg QS-21))	T-cell response by ICS (CD4+ T cells expressing one or more cytokines on stimulation with VZV gE): dose dependence (CD4+ T cells [6]; [7])	antibody response by ELISA compared to AS-01B (VZV gE; [8])	antibody response by ELISA: dose dependence (VZV gE; [7])	T-cell response by FluoroSpot compared to AS-01B (spleen lymphocytes; [8])	T-cell response by FluoroSpot: dose dependence (spleen lymphocytes; [7])
CCCCCCCCCCC[C@H](CC(=O)N[C@H]1[C@H](OC[C@H](NC(=O)C[C@@H](CCCCCCCCCCC)OC(=O)CCCCCCCCC)C(=O)O)O[C@H](CO)[C@@H](OP(=O)(O)O)[C@@H]1OC(=O)C[C@@H](CCCCCCCCCCC)OC(=O)CCCCCCCCC)OC(=O)CCCCCCCCC [CRX-527]	lowest	no effect	significantly increased	significantly higher	significantly higher	significantly increased							
CC1O[C@@H](OC2C(O)[C@@H](NC(=O)CCCCCCCCCCC(=O)O)C(CO)O[C@H]2OC(=O)[C@]23CCC(C)(C)CC2C2=CCC4C5(C)CC[C@H](O)C(C)(C=O)C5CCC4(C)C2(C)CC3O)C(O)C(O)[C@H]1O[C@@H]1OC[C@@H](O)C(O)C1O (stereo partly shown) [TQL-1055]							no significant weight loss	without any significant difference	dose-dependent	without any significant difference	dose-dependent	without any significant difference	dose-dependent
